Data reported in US20260091050A1, “ADVANTAGEOUS ANTI-HCV COMBINATION THERAPY” (Atea Pharmaceuticals, Inc., priority 2021, published 2026).
Where “and” joins values, the source holds several entries; their conditions need not be identical. Equal values may be shown once. Read-outs that look alike come from different tables or passages of the source.

Assays:
HCV [1] = conditions: cited from earlier work; for viral load reduction, individual: cirrhotic
[2] = Head-to-head comparison of Compound 1 and Compound 1-A in dogs: plasma levels; format: in vivo; conditions: dog plasma
Protocol: A head-to-head comparison of dogs dosed with Compound 1 and Compound 1-A was conducted.

GT1 HCV = assay: Single ascending dose study of Compound 1-A in GT1-HCV infected patients (Part B); format: in vivo, human; conditions: for Mean Max Reduction of HCV RNA from baseline: GT1b HCV patients
Protocol: Subjects in Part B received a single dose of Compound 1-A in the fasting state. Patients were confined to the clinic from Day −1 to Day 6.
Part B was initiated after the safety (through Day 5) and plasma pharmacokinetic (through 24 h) data review from Cohort 3a in Part A. Available safety data (through Day 5) and pharmacokinetic data (through 24 h) was reviewed for the first cohort in Part B (Cohort 1b) before enrolling subsequent Part B cohorts. Subsequent Part B cohorts were only dosed following review of available safety and pharmacokinetic data from the respective doses in Part A as well as available safety (through Day 5) from the prior Part B cohorts.
Patients infected with HCV were treatment-naïve, non-cirrhotic GT1-infected subjects with a viral load of ≥5 log10 IU/mL.
Baseline was defined as the mean of Day −1 and Day 1 (pre-dose). […] The mean maximum HCV RNA reduction 24 hours post-dose following a single 300 mg dose was 1.7 log10 IU/mL and this compares to a −2 log 10 IU/mL reduction after 1 day of 400 mg of sofosbuvir monotherapy in GT1a HCV-infected subjects. The mean maximum HCV RNA reduction 24 hours post-dose following a single 100 mg dose was 0.8 log10 IU/mL. The mean 10 maximum HCV RNA reduction was 2.2 log10 IU/mL following a single 400 mg dose.

[3] = Plasma levels of Compound 1 and metabolites after single oral dose of Compound 1-A, rat; format: in vivo; conditions: 500 mg/kg single oral dose
GT3 HCV = assay: 600 mg QD for 7 days in non-cirrhotic GT3 HCV-infected patients (Part D); format: in vivo, human
Protocol: Doses were administered as the Compound 1-A salt base. The free base Compound 1 equivalent is often given in parenthesis.
Part C was a randomized, double-blind, placebo-controlled MAD study divided into three cohorts. […] The dose escalation only proceeded following satisfactory review of the data.
HCV-infected patients were treatment-naïve with HCV RNA ≥5 log 10 IU/mL. HCV RNA was quantified using COBAS® AmpliPrep TaqMAN® v2.0 with LLQ of 15 IU/mL. Plasma drug levels were measured using LC-MS/MS. […] Mean ages of enrolled subjects were 44, 39, and 56 years in the non-cirrhotic GT1b 600 mg dose cohort, non-cirrhotic GT3 cohort, and the cirrhotic cohort, respectively.

[4] = Heart and liver tissue levels of active triphosphate 4 hours after oral Compound 1-A, rat; format: in vivo; conditions: 4 hours after single oral dose
Protocol: High levels of the active TP were measured in the liver of all species tested.

[5] = Stability under refrigerator conditions (5 ± 3° C.) of Compound 1-A over 9 months; format: physicochemical
Protocol: Three conditions were tested: accelerated stability (40±2° C./[…]) over a 6-month time period, ambient stability (25±2° C./[…]) over a 9-month period, and stability under refrigerator conditions (5±3° C.) over a 9-month time period. The results for accelerated stability, ambient stability, and refrigerator conditions are shown in Table 23, Table 24, and Table 25, respectively.

HCV [6] = assay: Emax model: HCV RNA reduction on day 7 against AUC of metabolite 1-7; format: in vivo, human; conditions: after 7 days QD dosing, metabolite 1-7 exposures ≥2000 ng/mL×h
[7] = 600 mg of Compound 1-A, GT3, non-cirrhotic (n = 6)

For `CNc1nc(N)nc2c1ncn2[C@@H]1O[C@H](CO[P@@](=O)(N[C@@H](C)C(=O)OC(C)C)Oc2ccccc2)[C@@H](O)[C@@]1(C)F` [Compound 1-A, isopropyl ((S)-(((2R,3R,4R,5R)-5-(2-amino-6-(methylamino)-9H-purin-9-yl)-4-fluoro-3-hydroxy-4-methyltetrahydrofuran-2-yl)methoxy) (phenoxy)phosphoryl)-L-alaninate hemisulfate], the viral load reduction (HCV [1]; cirrhotic participants) is given as 4.6 log 10 IU/mL, the “viral load reduction, individual” value (HCV [1]; GT1b, listed as bemnifosbuvir) is given as 4.0 log 10 IU/mL (2×) and 4.5 log 10 IU/mL and the “viral load reduction, individual” value (HCV [1]; GT2) is given as 5.0 log 10 IU/mL. For the same molecule, the “viral load reduction, individual” value (HCV [1]; GT3, listed as bemnifosbuvir) was 4.8 log 10 IU/mL and 5.2 log 10 IU/mL, the viral load reduction (HCV [1]; non-cirrhotic participants) was 4.5 log 10 IU/mL and the “AUC(0-4 hr) of metabolite 1-7 compared to dosing with Compound 1” value [2] was “twice as great”. For the same molecule, the “Mean Dose-normalized AUC(0-4 hr) for Compound 1” value ([2]; normalized to a dose of 25 mg/kg, 25 mg/kg) was 1.0 µM·h, the “mean maximum HCV RNA reduction” value (GT1 HCV; 24 hours post-dose, single 100 mg dose) was 0.8 log10 IU/mL and the “mean maximum HCV RNA reduction” value (GT1 HCV; 24 hours post-dose, single 300 mg dose, GT1b) was 1.7 log10 IU/mL. For the same molecule, the “Mean Max Reduction of HCV RNA from baseline” value (“Mean Max Reduction of HCV RNA” below) (GT1 HCV; single dose, Compound 1-A equivalent of 92 mg Compound 1) was 0.8 log10 IU/ml, the “Mean Max Reduction of HCV RNA” value (GT1 HCV; single dose, Compound 1-A equivalent of 275 mg Compound 1) was 1.7 log10 IU/ml and the “Mean Max Reduction of HCV RNA” value (GT1 HCV; single dose, Compound 1-A equivalent of 368 mg Compound 1) was 2.2 log10 IU/ml. The “Mean Max Reduction of HCV RNA” value (GT1 HCV; single dose, Compound 1-A equivalent of 550 mg Compound 1) was 2.3 log10 IU/ml, the “intensity of adverse effects” value (GT1 HCV; Part B) was “mild to moderate” and the serious adverse events (GT1 HCV; Part B, GT1-HCV infected patients, single dose) was “No serious adverse events”. The “mean maximum HCV RNA reduction” value (GT1 HCV; single 400 mg dose) was 2.2 log10 IU/mL, the “individual maximum HCV RNA reductions” value (GT1 HCV; single 600 mg dose, non-cirrhotic GT1b) was 2.1 log10 IU/mL and 2.3 log10 IU/mL and 2.6 log10 IU/mL and the “mean maximum HCV RNA reduction” value (GT1 HCV; single 600 mg dose, non-cirrhotic GT1b (n=3)) was 2.3 log10 IU/mL. For the same molecule, the “time within which the parent is metabolized” value (GT1 HCV; single oral dose of Compound 1-A, plasma) was at most 8 h, the “Compound 1 AUC0-last” value [3] was 60.9 ng·h/mL and the “Compound 1 Cmax” value [3] was 70.5 ng/mL. For the same molecule, the “Compound 1 Tmax” value [3] was 15 min, the “mean maximum HCV RNA reduction” value (GT3 HCV; 600 mg QD for 7 days, non-cirrhotic GT3) was 4.6 log10 IU/mL and 4.5 log10 IU/mL and the “Mean Max Reduction” value (GT3 HCV; [7]) was 4.5 log10 IU/mL. For the same molecule, the “Mean Reduction After 24 hours” value (GT3 HCV; [7]) was 2.4 log10 IU/mL, the “HCV RNA < LOQ (15 IU/mL)” value (GT3 HCV; 600 mg of Compound 1-A, GT3, non-cirrhotic (n = 6), subjects/total) was 1/6 and the “mean HCV RNA reduction” value (GT3 HCV; after the first dose of 600 mg, non-cirrhotic GT3) was 2.4 log10 IU/mL. The “active TP (metabolite 1-6) level in heart” value [4] was “unquantifiable levels”, the “active TP (metabolite 1-6) level in liver” value [4] was “High levels” and the Appearance ([5]; 5 ± 3° C., 0 month) was “White”. The Assay ([5]; 5 ± 3° C., 0 month) was 98.8%, the IR ([5]; 5 ± 3° C., 0 month) was “correspond” and the “Related Substance 1 Any other single impurity” value ([5]; 5 ± 3° C., 0 month) was 0.01%. The “Related Substance 1 Total Impurities” value ([5]; 5 ± 3° C., 0 month) was 0.01%, the Water ([5]; 5 ± 3° C., 0 month) was 0.45% and the Appearance ([5]; 5 ± 3° C., 1st month) was “White”. The Assay ([5]; 5 ± 3° C., 1st month) was 101.1%, the “Related Substance 1 Any other single impurity” value ([5]; 5 ± 3° C., 1st month) was 0.01% and the “Related Substance 1 Total Impurities” value ([5]; 5 ± 3° C., 1st month) was 0.01%. The Water ([5]; 5 ± 3° C., 1st month) was 0.19%, the Appearance ([5]; 5 ± 3° C., 3rd month) was “White” and the Assay ([5]; 5 ± 3° C., 3rd month) was 100.2%. The IR ([5]; 5 ± 3° C., 3rd month) was “correspond”, the “Related Substance 1 Any other single impurity” value ([5]; 5 ± 3° C., 3rd month) was 0.01% and the “Related Substance 1 Impurity B” value ([5]; 5 ± 3° C., 3rd month) was 0.01%. For the same molecule, the “Related Substance 1 Total Impurities” value ([5]; 5 ± 3° C., 3rd month) was 0.03%, the Water ([5]; 5 ± 3° C., 3rd month) was 0.32% and the Appearance ([5]; 5 ± 3° C., 6th month) was “White”. For the same molecule, the Assay ([5]; 5 ± 3° C., 6th month) was 98.6%, the IR ([5]; 5 ± 3° C., 6th month) was “correspond” and the “Related Substance 1 Any other single impurity” value ([5]; 5 ± 3° C., 6th month) was 0.01%. The “Related Substance 1 Total Impurities” value ([5]; 5 ± 3° C., 6th month) was 0.03%, the Water ([5]; 5 ± 3° C., 6th month) was 0.42% and the Appearance ([5]; 5 ± 3° C., 9th month) was “Off-white”. The Assay ([5]; 5 ± 3° C., 9th month) was 101.4%, the IR ([5]; 5 ± 3° C., 9th month) was “correspond” and the “Related Substance 1 Any other single impurity” value ([5]; 5 ± 3° C., 9th month) was 0.01%. The “Related Substance 1 Total Impurities” value ([5]; 5 ± 3° C., 9th month) was 0.01%, the Water ([5]; 5 ± 3° C., 9th month) was 0.32% and the “total impurities of related substance 1” value ([5]; after 9 months) was 0.0100. The water content ([5]; after 9 months) was 0.3200, the “Chemical stability (conclusion)” value ([5]; refrigerator conditions) was “very chemically stable” and the “predicted maximal viral load reduction” value (HCV [6]) was “at least 4 log units”.
